Each block holds one molecule with its values, some of them ahead of it.
Test system: 324938-238-R-J1-PDC complex spheroid growth, % test/control
Assay: Anticancer human tumor 324938-238-R-J1-PDC patient-derived bladder carcinoma cell line growth inhibition [AhR]
Details: for IC50: curve of first compound; for viability, T/C: stronger effect = lower value
Outline: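 Spheroids combined tumor cells with HUVEC endothelial cells and human MSCs as stroma. AhR antagonists were paired with standard or investigational drugs, each dosed in half-log steps down from near clinical Cmax, or from 10 microM where Cmax was unknown.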

[1] = second compound 0.1 µM, first compound 0.00949 µM
[2] = second compound 0.1 µM, first compound 0.03 µM
[3] = second compound 0.1 µM, first compound 0.0949 µM
[4] = second compound 0.1 µM, first compound 0.3 µM
[5] = second compound 0.316 µM, first compound 0.00949 µM
[6] = second compound 0.316 µM, first compound 0.03 µM
[7] = second compound 0.316 µM, first compound 0.0949 µM
[8] = second compound 0.316 µM, first compound 0.3 µM
[9] = second compound 1 µM, first compound 0.00949 µM
[10] = second compound 1 µM, first compound 0.03 µM
[11] = second compound 1 µM, first compound 0.0949 µM
[12] = second compound 1 µM, first compound 0.3 µM
[13] = second compound 3.16 µM, first compound 0.00949 µM
[14] = second compound 3.16 µM, first compound 0.03 µM
[15] = second compound 3.16 µM, first compound 0.0949 µM
[16] = second compound 3.16 µM, first compound 0.3 µM
[17] = second compound 10 µM, first compound 0.00949 µM
[18] = second compound 10 µM, first compound 0.03 µM
[19] = second compound 10 µM, first compound 0.0949 µM
[20] = second compound 10 µM, first compound 0.3 µM
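Also: spheroids exposed to agents for seven days before viability read.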

IC50 (second compound 0.1 µM): < 0.000949 µM
IC50 (second compound 0.316 µM): < 0.000949 µM
IC50 (second compound 1 µM): < 0.000949 µM
IC50 (second compound 3.16 µM): < 0.000949 µM
IC50 (second compound 10 µM): < 0.000949 µM
SMILES: CCc1c2c(nc3ccc(O)cc13)-c1cc3c(c(=O)n1C2)COC(=O)[C@]3(O)CC + CC(CO)NC(=O)c1cc(-c2ccc(Cl)cc2)nn(-c2cnn(C)c2)c1=O
viability, T/C (second compound 0.1 µM, first compound 0.000949 µM): 41.3%
viability, T/C (second compound 0.1 µM, first compound 0.003 µM): 28.7%
viability, T/C [1]: 15.3%
viability, T/C [2]: 17.3%
viability, T/C [3]: 17.4%
viability, T/C [4]: 15.9%
viability, T/C (second compound 0.316 µM, first compound 0.000949 µM): 37.5%
viability, T/C (second compound 0.316 µM, first compound 0.003 µM): 31%
viability, T/C [5]: 17.1%
viability, T/C [6]: 16.9%
viability, T/C [7]: 15.8%
viability, T/C [8]: 18.6%
viability, T/C (second compound 1 µM, first compound 0.000949 µM): 43.3%
viability, T/C (second compound 1 µM, first compound 0.003 µM): 29%
viability, T/C [9]: 19.6%
viability, T/C [10]: 15.5%
viability, T/C [11]: 16.1%
viability, T/C [12]: 15.3%
viability, T/C (second compound 3.16 µM, first compound 0.000949 µM): 34%
viability, T/C (second compound 3.16 µM, first compound 0.003 µM): 28.9%
viability, T/C [13]: 18.9%
viability, T/C [14]: 14.5%
viability, T/C [15]: 14.6%
viability, T/C [16]: 13.8%
viability, T/C (second compound 10 µM, first compound 0.000949 µM): 36.3%
viability, T/C (second compound 10 µM, first compound 0.003 µM): 31.8%
viability, T/C [17]: 24.4%
viability, T/C [18]: 17.1%
viability, T/C [19]: 18.6%
viability, T/C [20]: 17%

IC50 (second compound 0.1 µM): > 3 µM
IC50 (second compound 0.316 µM): > 3 µM
IC50 (second compound 1 µM): > 3 µM
IC50 (second compound 3.16 µM): > 3 µM
IC50 (second compound 10 µM): > 3 µM
SMILES: CCN(c1cc(-c2ccc(CN3CCOCC3)cc2)cc(C(=O)NCc2c(C)cc(C)[nH]c2=O)c1C)C1CCOCC1 + Cc1ccccc1N=Nc1ccc(NC(=O)c2ccnn2C)c(C)c1
viability, T/C [1]: 123%
viability, T/C [2]: 113%
viability, T/C [3]: 111%
viability, T/C [4]: 93.2%
viability, T/C (second compound 0.1 µM, first compound 0.949 µM): 96.2%
viability, T/C (second compound 0.1 µM, first compound 3 µM): 93.3%
viability, T/C [5]: 100%
viability, T/C [6]: 111%
viability, T/C [7]: 106%
viability, T/C [8]: 103%
viability, T/C (second compound 0.316 µM, first compound 0.949 µM): 108%
viability, T/C (second compound 0.316 µM, first compound 3 µM): 94.8%
viability, T/C [9]: 102%
viability, T/C [10]: 101%
viability, T/C [11]: 94.9%
viability, T/C [12]: 90%
viability, T/C (second compound 1 µM, first compound 0.949 µM): 98.7%
viability, T/C (second compound 1 µM, first compound 3 µM): 93.2%
viability, T/C [13]: 82.4%
viability, T/C [14]: 100%
viability, T/C [15]: 81.9%
viability, T/C [16]: 90.2%
viability, T/C (second compound 3.16 µM, first compound 0.949 µM): 91.8%
viability, T/C (second compound 3.16 µM, first compound 3 µM): 93.6%
viability, T/C [17]: 88.4%
viability, T/C [18]: 89.6%
viability, T/C [19]: 82%
viability, T/C [20]: 87%
viability, T/C (second compound 10 µM, first compound 0.949 µM): 77.5%
viability, T/C (second compound 10 µM, first compound 3 µM): 84.8%

IC50 (second compound 0.1 µM): > 10 µM
IC50 (second compound 0.316 µM): > 10 µM
IC50 (second compound 1 µM): > 10 µM
IC50 (second compound 3.16 µM): > 10 µM
IC50 (second compound 10 µM): < 0.0316 µM
SMILES: COc1cc(Nc2ncc3c(n2)-c2ccc(Cl)cc2C(c2c(F)cccc2OC)=NC3)ccc1C(=O)O + Cc1cncc(-c2nc(NCCc3c[nH]c4ccccc34)c3ncn(C(C)C)c3n2)c1
viability, T/C (second compound 0.1 µM, first compound 0.0316 µM): 116%
viability, T/C (second compound 0.1 µM, first compound 0.1 µM): 130%
viability, T/C (second compound 0.1 µM, first compound 0.316 µM): 149%
viability, T/C (second compound 0.1 µM, first compound 1 µM): 91.1%
viability, T/C (second compound 0.1 µM, first compound 3.16 µM): 127%
viability, T/C (second compound 0.1 µM, first compound 10 µM): 108%
viability, T/C (second compound 0.316 µM, first compound 0.0316 µM): 91.2%
viability, T/C (second compound 0.316 µM, first compound 0.1 µM): 137%
viability, T/C (second compound 0.316 µM, first compound 0.316 µM): 104%
viability, T/C (second compound 0.316 µM, first compound 1 µM): 87.1%
viability, T/C (second compound 0.316 µM, first compound 3.16 µM): 93.4%
viability, T/C (second compound 0.316 µM, first compound 10 µM): 65%
viability, T/C (second compound 1 µM, first compound 0.0316 µM): 88.9%
viability, T/C (second compound 1 µM, first compound 0.1 µM): 127%
viability, T/C (second compound 1 µM, first compound 0.316 µM): 98.2%
viability, T/C (second compound 1 µM, first compound 1 µM): 107%
viability, T/C (second compound 1 µM, first compound 3.16 µM): 76%
viability, T/C (second compound 1 µM, first compound 10 µM): 80.4%
viability, T/C (second compound 3.16 µM, first compound 0.0316 µM): 97.5%
viability, T/C (second compound 3.16 µM, first compound 0.1 µM): 131%
viability, T/C (second compound 3.16 µM, first compound 0.316 µM): 121%
viability, T/C (second compound 3.16 µM, first compound 1 µM): 96.2%
viability, T/C (second compound 3.16 µM, first compound 3.16 µM): 82.7%
viability, T/C (second compound 3.16 µM, first compound 10 µM): 84.5%
viability, T/C (second compound 10 µM, first compound 0.0316 µM): 17.1%
viability, T/C (second compound 10 µM, first compound 0.1 µM): 14.8%
viability, T/C (second compound 10 µM, first compound 0.316 µM): 18.8%
viability, T/C (second compound 10 µM, first compound 1 µM): 15%
viability, T/C (second compound 10 µM, first compound 3.16 µM): 19.1%
viability, T/C (second compound 10 µM, first compound 10 µM): 25.6%

— PubChem BioAssay AID1918995 (Molecular Pharmacology Branch, DTP, NCI, 2023)
